{
  "source": "patent US20110144188A1",
  "about": "“SALTS OF T[…] N-[…] TRIMEBUTINE” (Antibe Therapeutics Inc., priority 2006, published 2011)",
  "key": {"[1]": {"test_system": "rat model of visceral pain perception", "assay": "Rat model of visceral pain perception (colorectal distension, AWR score and colorectal pressure)", "type": "in vivo", "description": "A rat model of visceral pain perception, a pre-clinical model of irritable bowel syndrome, was used in the following example. Rats (male, Wistar, 200-250 g, obtained from Charles River, Monza, Italy), were housed in plastic cages and maintained under controlled conditions with 12-hours light/dark cycle with lights on at 7.00 AM. Tap water and standard laboratory chow were freely available. Before experiments, rats were individually trained by spending 2-3 hours per day in a plexiglass cage for 2-3 days. It allowed them to adjust to a movement-restriction environment. Food was withheld for 12 hours before colorectal distension (CRD) recording were performed. Experiments were performed in awake rats and were conducted in a blind manner in that the observer was not aware of the identity of drug administered to each animal.\nOn the testing day, rats were sedated with ether inhalation and a 2 cm long latex balloon was inserted intrarectally 2 cm from the anal verge and fixed at the base of the tail. The balloon was connected via a double-barreled cannula to a pressure transducer to continuously monitoring the rectal pressure by a computer (PowerLab PC, A.D. Instruments, Milford, Mass., USA) and to a syringe for inflation/deflation of the balloon. The rats were then housed in a small cage (20×8×8 cm) on an elevated Plexiglas™ platform and allowed to wake up and adapt for 1 hour. After recovery from sedation, animals underwent the CRD procedure and behavioral responses were tested. The night before the experiments, the balloons were inflated and left overnight so the latex stretched and the balloons became compliant.\nCRD of 20 seconds, performed every 5 minutes, was applied in increment of 0.4 ml starting from 0.4 ml up to 1.6 ml water. To achieve an accurate measurement of the colonic parameters and perception, the distensions were repeated twice for each intensity and data for each animal were averaged for analysis. Each animal underwent a double set of CRD. Twenty minutes after the first sequence of CRD (0.4 mL-1.6 ml water), drugs were administered intraperitoneally (i.p.) and a second set of CRD was performed. Behavioral responses during the first and the second set of CRD were assessed and compared.\nBehavioral response to CRD was assessed by measuring the abdominal withdrawal reflex (AWR) using a semi-quantitative score (1).\nThe effects of trimebutine maleate, nitroarginine and trimebutine nitroargininate on colonic compliance and sensitivity were determined using a total of 15 fasting rats. […]\nTo determine the effect of trimebutine maleate, nitroarginine and trimebutine nitroargininate on colonic smooth muscle, the compliance of the colo-rectum during CRD was obtained from intracolo-rectal volume and pressure and expressed as mL/mmHg. […]"}, "[2]": {"test_system": "abdominal pain in patients with functional bowel disorders", "conditions": "especially IBS, 300 to 600 mg/day; cited from earlier work"}},
  "data": [
    {"smiles": "CCC(COC(=O)c1cc(OC)c(OC)c(OC)c1)(c1ccccc1)N(C)C.N=C(NCCC[C@H](N)C(=O)O)N[N+](=O)[O-]", "note": "(stereo not drawn) [trimebutine nitroargininate]", "values": [
      {"measurement": "reducing visceral pain in response to colorectal distension (AWR score)", "setting": "[1]; Wistar rats, 16 mg/kg i.p., vs trimebutine maleate 10 mg/kg i.p. and nitroarginine 6 mg/kg, FIGS. 1(a), 2(a), 3(a)", "value": "more effective than either trimebutine maleate or nitroarginine"},
      {"measurement": "visceral analgesic effects (AWR score) after pretreatment with L-NAME", "setting": "[1]; rats, 16 mg/kg i.p., L-NAME 25 mg/kg i.v. 10 min before, FIG. 4(a)", "value": "largely abolished"},
      {"measurement": "visceral analgesic effects (AWR score) after pretreatment with methylene blue", "setting": "[1]; rats, 16 mg/kg i.p., methylene blue 1 mg/kg i.p. 10 min before, FIG. 4(b)", "value": "largely abolished"}
    ]},
    {"smiles": "CCC(COC(=O)c1cc(OC)c(OC)c(OC)c1)(c1ccccc1)N(C)C.NC(=S)c1ccc(C(=O)O)cc1", "note": "(stereo not drawn) [trimebutine thiocarbamoylbenzoate, 3,4,5-trimethoxybenzoic acid 2-(dimethylamino)-2-phenylbutyl ester 4-thiocarbamoyl benzoate]", "values": [
      {"measurement": "reducing visceral pain in response to colorectal distension (AWR score)", "setting": "[1]; rats, dose equimolar to trimebutine maleate 10 mg/kg, vs trimebutine maleate and thiocarbamoylbenzoate alone, FIGS. 5(a), 5(b)", "value": "more effective than either trimebutine maleate or thiocarbamoylbenzoate"}
    ]},
    {"smiles": "CCC(COC(=O)c1cc(OC)c(OC)c(OC)c1)(c1ccccc1)N(C)C", "note": "(stereo not drawn) [Trimebutine, 3,4,5-trimethoxybenzoic acid 2-(dimethylamino)-2-phenylbutylester]", "values": [
      {"measurement": "treatment of abdominal pain in patients", "setting": "[2]", "value": "effective in the treatment of both acute and chronic abdominal pain"}
    ]},
    {"smiles": "NC(=S)c1ccc(C(=O)O)cc1", "values": [
      {"measurement": "melting point", "value": "296 to 298 °C (dec.)"}
    ]}
  ]
}
